The results in this text go back to ChEMBL document CHEMBL3044639, “Synthesis and biologic activities of some novel heterocyclic chalcone derivatives” (Med Chem Res, 2013).

Calls of active or inactive are those of the source. No cut-off for these calls is given here. Some results are limits rather than exact numbers.

The first experiment deals with Staphylococcus aureus. The experiment can be described thus: Antibacterial activity against Staphylococcus aureus 1199B overexpressing NorA assessed as reduction of ciprofloxacin MIC at MEC after 18 hr by broth checkerboard method relative to control.
Settings: not given
It counts as functional.
Take `COc1cccc(/C=C/C(=O)c2ccco2)c1OC`: the “fold change (FC)” value came to 4.

As to `COc1ccc(OC)c(/C=C/C(=O)c2ccco2)c1`, the “fold change (FC)” value worked out at 0.

On to `COc1ccc(/C=C/C(=O)c2ccc[nH]2)cc1`, for which the “fold change (FC)” value is listed as 2.

On to `COc1cccc(OC)c1/C=C/C(=O)c1ccc[nH]1`, for which the “fold change (FC)” value is given as 0.

Consider `COC(=O)[C@H]1[C@H]2C[C@@H]3c4[nH]c5cc(OC)ccc5c4CCN3C[C@H]2C[C@@H](OC(=O)c2cc(OC)c(OC)c(OC)c2)[C@@H]1OC` [RESERPINE], for which the “fold change (FC)” value stood at 0.

As for `CN(C)c1ccc(/C=C/C(=O)c2ccc[nH]2)cc1`, the “fold change (FC)” value turned out to be 0.

With `O=C(/C=C/c1ccc2c(c1)OCO2)c1ccc[nH]1`, the “fold change (FC)” value was 0.

As for `COc1ccc(/C=C/C(=O)c2ccc[nH]2)cc1OC`, the “fold change (FC)” value came to 0.

Take `O=C(/C=C/c1ccc(F)cc1)c1ccco1`: the “fold change (FC)” value is listed as 0.

In the case of `O=C(/C=C/c1ccc(F)cc1)c1ccc[nH]1`, the “fold change (FC)” value worked out at 2.

`COc1ccc(/C=C/C(=O)c2ccco2)cc1`: the “fold change (FC)” value was found to be 0.

`COc1cccc(/C=C/C(=O)c2ccc[nH]2)c1OC`: the “fold change (FC)” value is 4.

`COc1ccc(CCN(C)CCCC(C#N)(c2ccc(OC)c(OC)c2)C(C)C)cc1OC` (centres undefined) [VERAPAMIL]: the “fold change (FC)” value was 2.

`COc1cc(/C=C/C(=O)c2ccco2)cc(OC)c1OC`: the “fold change (FC)” value amounted to 0.

Consider `O=C(/C=C/c1ccc2c(c1)OCO2)c1ccco1`, for which the “fold change (FC)” value was determined as 0.

Take `COc1ccc(/C=C/C(=O)c2ccc[nH]2)c(OC)c1`: the “fold change (FC)” value is given as 2.

In the case of `O=C(/C=C/c1ccc([N+](=O)[O-])cc1)c1ccco1`, the “fold change (FC)” value stood at 0.

A further experiment has as its system Rattus norvegicus. The experiment is described as follows: Anti-inflammatory activity in Wistar Rattus norvegicus (rat) assessed as inhibition of carrageenan-induced paw edema at 100 mg/kg, po administered 45 min prior to carrageenan-challenge measured 45 min to 4 hr post carrageenan-challenge relative to control. It counts as functional.
Settings: not given
For orientation: The carrageenan paw model is a standard test of acute inflammation.
On to `COc1cccc(/C=C/C(=O)c2ccco2)c1OC`, for which the inhibition result was “inactive”.

As to `COc1ccc(OC)c(/C=C/C(=O)c2ccco2)c1`, the inhibition result was “inactive”.

Consider `COc1ccc(/C=C/C(=O)c2ccc[nH]2)cc1`, for which the inhibition entry was “inactive”.

Regarding `COc1cccc(OC)c1/C=C/C(=O)c1ccc[nH]1`, the inhibition entry was “inactive”.

On to `CN(C)c1ccc(/C=C/C(=O)c2ccc[nH]2)cc1`, for which the inhibition entry was “inactive”.

As to `O=C(/C=C/c1ccc2c(c1)OCO2)c1ccc[nH]1`, the inhibition result is “inactive”.

`COc1ccc(/C=C/C(=O)c2ccc[nH]2)cc1OC`: the inhibition entry was “inactive”.

Regarding `O=C(/C=C/c1ccc(F)cc1)c1ccco1`, the inhibition result was “inactive”.

Consider `O=C(/C=C/c1ccc(F)cc1)c1ccc[nH]1`, for which the inhibition result was “inactive”.

`COc1ccc(/C=C/C(=O)c2ccco2)cc1`: the inhibition entry is “inactive”.

With `COc1cccc(/C=C/C(=O)c2ccc[nH]2)c1OC`, the inhibition entry was “inactive”.

In the case of `COc1cc(/C=C/C(=O)c2ccco2)cc(OC)c1OC`, the inhibition result is “inactive”.

For the compound `O=C(/C=C/c1ccc2c(c1)OCO2)c1ccco1`, the inhibition entry was “inactive”.

As for `COc1ccc(/C=C/C(=O)c2ccc[nH]2)c(OC)c1`, the inhibition result is “inactive”.

For the compound `O=C(/C=C/c1ccc([N+](=O)[O-])cc1)c1ccco1`, the inhibition entry is “inactive”.

The next experiment relates to Radical scavenging activity. The experiment can be described thus: Antioxidant activity assessed as DPPH radical scavenging activity after 20 min by microplate ELISA reader analysis. The class given is functional.
Settings: not given
In the case of `COc1cccc(/C=C/C(=O)c2ccco2)c1OC`, the result was inactive.

For `COc1ccc(OC)c(/C=C/C(=O)c2ccco2)c1`, the outcome was inactive.

With `COc1ccc(/C=C/C(=O)c2ccc[nH]2)cc1`, the outcome was inactive.

As for `COc1cccc(OC)c1/C=C/C(=O)c1ccc[nH]1`, the result was inactive.

Turning to `CN(C)c1ccc(/C=C/C(=O)c2ccc[nH]2)cc1`, the result was inactive.

Consider `O=C(/C=C/c1ccc2c(c1)OCO2)c1ccc[nH]1`, for which the outcome was inactive.

For `COc1ccc(/C=C/C(=O)c2ccc[nH]2)cc1OC`, the result was inactive.

Take `O=C(/C=C/c1ccc(F)cc1)c1ccco1`: the outcome was inactive.

As to `O=C(/C=C/c1ccc(F)cc1)c1ccc[nH]1`, the outcome was inactive.

In the case of `COc1ccc(/C=C/C(=O)c2ccco2)cc1`, the result was inactive.

Turning to `COc1cccc(/C=C/C(=O)c2ccc[nH]2)c1OC`, the result was inactive.

Consider `COc1cc(/C=C/C(=O)c2ccco2)cc(OC)c1OC`, for which the result was inactive.

With `O=C(/C=C/c1ccc2c(c1)OCO2)c1ccco1`, the result was inactive.

For `COc1ccc(/C=C/C(=O)c2ccc[nH]2)c(OC)c1`, the result was inactive.

Consider `O=C(/C=C/c1ccc([N+](=O)[O-])cc1)c1ccco1`, for which the outcome was inactive.

Another experiment has as its system Staphylococcus aureus. The experiment can be described thus: Antibacterial activity against Staphylococcus aureus 1199B overexpressing NorA assessed as growth inhibition after 18 hr by broth checkerboard method. The class given is functional. To be noted: read-out: MEC.
Turning to `COc1cccc(/C=C/C(=O)c2ccco2)c1OC`, the minimal effective concentration turned out to be 25 µg/mL.

Consider `COc1ccc(OC)c(/C=C/C(=O)c2ccco2)c1`, for which the minimal effective concentration is above 50 µg/mL.

Consider `COc1ccc(/C=C/C(=O)c2ccc[nH]2)cc1`, for which the minimal effective concentration is 25 µg/mL.

For the compound `COc1cccc(OC)c1/C=C/C(=O)c1ccc[nH]1`, the minimal effective concentration is above 50 µg/mL.

With `COC(=O)[C@H]1[C@H]2C[C@@H]3c4[nH]c5cc(OC)ccc5c4CCN3C[C@H]2C[C@@H](OC(=O)c2cc(OC)c(OC)c(OC)c2)[C@@H]1OC` [RESERPINE], the minimal effective concentration turned out to be 25 µg/mL.

As to `CN(C)c1ccc(/C=C/C(=O)c2ccc[nH]2)cc1`, the minimal effective concentration is above 50 µg/mL.

Regarding `O=C(/C=C/c1ccc2c(c1)OCO2)c1ccc[nH]1`, the minimal effective concentration is above 50 µg/mL.

`COc1ccc(/C=C/C(=O)c2ccc[nH]2)cc1OC`: the minimal effective concentration was above 50 µg/mL.

As to `O=C(/C=C/c1ccc(F)cc1)c1ccco1`, the minimal effective concentration is above 50 µg/mL.

As to `O=C(/C=C/c1ccc(F)cc1)c1ccc[nH]1`, the minimal effective concentration is 25 µg/mL.

Turning to `COc1ccc(/C=C/C(=O)c2ccco2)cc1`, the minimal effective concentration is above 50 µg/mL.

With `COc1cccc(/C=C/C(=O)c2ccc[nH]2)c1OC`, the minimal effective concentration amounted to 25 µg/mL.

Regarding `COc1ccc(CCN(C)CCCC(C#N)(c2ccc(OC)c(OC)c2)C(C)C)cc1OC` (centres undefined) [VERAPAMIL], the minimal effective concentration amounted to 50 µg/mL.

As for `COc1cc(/C=C/C(=O)c2ccco2)cc(OC)c1OC`, the minimal effective concentration is above 50 µg/mL.

As for `O=C(/C=C/c1ccc2c(c1)OCO2)c1ccco1`, the minimal effective concentration is above 50 µg/mL.

As to `COc1ccc(/C=C/C(=O)c2ccc[nH]2)c(OC)c1`, the minimal effective concentration turned out to be 25 µg/mL.

On to `O=C(/C=C/c1ccc([N+](=O)[O-])cc1)c1ccco1`, for which the minimal effective concentration is above 50 µg/mL.
